Measured values as given in US10543212B2, “Substituted amines for treating cardiac diseases” (Cardurion Pharmaceuticals, LLC, priority 2017, dated 2020).

These compounds were tested against T1, Full-length, GST-tagged, human CaMKIIδ (Homo sapiens, UniProt Q13557) (assay: CaMKIIδ binding assay (TR-FRET with BODIPY-labeled probe ligand)). Details: CaMKIIδ binding assay, results of Table 2.
T1 construct: Full-Length, Glutathione-S-Transferase(GST)-Tagged, Human CaMKIIδ was purchased from Carna Biosciences; purchased Carna Biosciences 02-111
T1 sequence (Q13557 1-478 isoform Q13557-12): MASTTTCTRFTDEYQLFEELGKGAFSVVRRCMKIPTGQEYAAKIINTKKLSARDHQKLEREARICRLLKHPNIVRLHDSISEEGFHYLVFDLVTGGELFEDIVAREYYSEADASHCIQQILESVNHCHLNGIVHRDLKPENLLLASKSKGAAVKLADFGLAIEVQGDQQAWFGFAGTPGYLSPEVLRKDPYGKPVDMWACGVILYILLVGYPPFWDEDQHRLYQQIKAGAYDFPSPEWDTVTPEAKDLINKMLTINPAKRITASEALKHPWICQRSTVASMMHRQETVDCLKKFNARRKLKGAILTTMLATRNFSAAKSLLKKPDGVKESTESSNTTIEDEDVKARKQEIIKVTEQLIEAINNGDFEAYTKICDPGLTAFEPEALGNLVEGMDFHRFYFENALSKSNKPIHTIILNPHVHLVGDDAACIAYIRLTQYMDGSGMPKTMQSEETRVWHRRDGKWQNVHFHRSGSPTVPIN
Method in brief: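 Compounds were tested as 4-fold, eight-point series for 1 hr at room temperature, and IC50 was obtained by logistic fitting against a 3 μM parent-compound control. Signal came from displacement of a 300 nM BODIPY ligand from 0.5 nM GST-CaMKIIδ, detected via Tb-anti-GST in calmodulin/Ca2+ (pH 7.6).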

| SMILES | IC50 |
| --- | --- |
| COc1cc2c(cc1Nc1ncc(-c3ccc(Cl)c(O[C@@H](C)Cn4cnnn4)c3)cn1)CN(C(=O)CO)CC2 [Example 522, (S)-1-(7-((5-(3-((1-(1H-tetrazol-1-yl)propan-2-yl)oxy)-4-chlorophenyl)pyrimidin-2-yl)amino)-6-methoxy-3,4-dihydroisoquinolin-2(1H)-yl)-2-hydroxyethan-1-one] | 10 to 100 nM |
| Cc1ncc(N2CC(O)C2)cc1Nc1ncc(-c2ccc(Cl)c(O[C@@H](C)Cn3cnnn3)c2)cn1 [Example 523, (S)-1-(5-((5-(3-((1-(1H-tetrazol-1-yl)propan-2-yl)oxy)-4-chlorophenyl)pyrimidin-2-yl)amino)-6-methylpyridin-3-yl)azetidin-3-ol] | 10 to 100 nM |
| C[C@@H](Cn1cnnn1)Oc1cc(-c2cnc(Nc3cc4c(cc3C3CC3)CCN(C3COC3)C4)nc2)ccc1C#N [Example 524, (S)-2-((1-(1H-tetrazol-1-yl)propan-2-yl)oxy)-4-(2-((6-cyclopropyl-2-(oxetan-3-yl)-1,2,3,4-tetrahydroisoquinolin-7-yl)amino)pyrimidin-5-yl)benzonitrile] | 10 to 100 nM |
| C[C@@H](Cn1cnnn1)Oc1cc(-c2cnc(Nc3cc4c(cc3Cl)CCN(C(=O)C(F)(F)F)CC4)nc2)ccc1C#N [Example 525, (S)-2-((1-(1H-tetrazol-1-yl)propan-2-yl)oxy)-4-(2-((8-chloro-3-(2,2,2-trifluoroacetyl)-2,3,4,5-tetrahydro-1H-benzo[d]azepin-7-yl)amino)pyrimidin-5-yl)benzonitrile] | 10 to 100 nM |
| COC(=O)c1ccc(OC)c(Nc2ncc(-c3ccc(Cl)c(O[C@@H](C)Cn4cnnn4)c3)cn2)c1 [Example 526, methyl (S)-3-((5-(3-((1-(1H-tetrazol-1-yl)propan-2-yl)oxy)-4-chlorophenyl)pyrimidin-2-yl)amino)-4-methoxybenzoate] | 10 to 100 nM |
| C[C@@H](Cn1cnnn1)Oc1cc(-c2cnc(Nc3cc4c(cc3Cl)CCNCC4)nc2)ccc1C#N [Example 527, (S)-2-((1-(1H-tetrazol-1-yl)propan-2-yl)oxy)-4-(2-((8-chloro-2,3,4,5-tetrahydro-1H-benzo[d]azepin-7-yl)amino)pyrimidin-5-yl)benzonitrile] | < 10 nM |
| COc1cc(C2CCN(C3COC3)CC2)c(C)cc1Nc1ncc(-c2ccc(C#N)c(O[C@@H](C)Cn3cnnn3)c2)cn1 [Example 528, (S)-2-((1-(1H-tetrazol-1-yl)propan-2-yl)oxy)-4-(2-((2-methoxy-5-methyl-4-(1-(oxetan-3-yl)piperidin-4-yl)phenyl)amino)pyrimidin-5-yl)benzonitrile] | < 10 nM |
| COc1cc(C2CCN(C3COC3)CC2)c(C)cc1Nc1ncc(-c2ccc(Cl)c(O[C@@H](C)Cn3cnnn3)c2)cn1 [Example 529, (S)-5-(3-((1-(1H-tetrazol-1-yl)propan-2-yl)oxy)-4-chlorophenyl)-N-(2-methoxy-5-methyl-4-(1-(oxetan-3-yl)piperidin-4-yl)phenyl)pyrimidin-2-amine] | < 10 nM |
| COc1cc(C2=CCN(C3COC3)CC2)c(C)cc1Nc1ncc(-c2ccc(C#N)c(O[C@@H](C)Cn3cnnn3)c2)cn1 [Example 530, (S)-2-((1-(1H-tetrazol-1-yl)propan-2-yl)oxy)-4-(2-((2-methoxy-5-methyl-4-(1-(oxetan-3-yl)-1,2,3,6-tetrahydropyridin-4-yl)phenyl)amino)pyrimidin-5-yl)benzonitrile] | < 10 nM |
| COc1cc(C2=CCN(C3COC3)CC2)c(C)cc1Nc1ncc(-c2ccc(Cl)c(O[C@@H](C)Cn3cnnn3)c2)cn1 [Example 531, (S)-5-(3-((1-(1H-tetrazol-1-yl)propan-2-yl)oxy)-4-chlorophenyl)-N-(2-methoxy-5-methyl-4-(1-(oxetan-3-yl)-1,2,3,6-tetrahydropyridin-4-yl)phenyl)pyrimidin-2-amine] | 10 to 100 nM |
| COc1ccc(N2CCNCC2)cc1Nc1ncc(-c2ccc(Cl)c(O[C@@H](C)Cn3cnnn3)c2)cn1 [Example 533, (S)-5-(3-((1-(1H-tetrazol-1-yl)propan-2-yl)oxy)-4-chlorophenyl)-N-(2-methoxy-5-(piperazin-1-yl)phenyl)pyrimidin-2-amine] | < 10 nM |
| COc1cc(N2CCC(N3CCOCC3)CC2)ccc1Nc1ncc(-c2cc(O[C@@H](C)Cn3cnnn3)c(Cl)cn2)cn1 [Example 534, (S)-5-(4-((1-(1H-tetrazol-1-yl)propan-2-yl)oxy)-5-chloropyridin-2-yl)-N-(2-methoxy-4-(4-morpholinopiperidin-1-yl)phenyl)pyrimidin-2-amine] | ≥ 100 nM |
| C[C@@H](Cn1cnnn1)Oc1cc(-c2cnc(Nc3cn(C4CCN(CCO)CC4)nc3C(F)(F)F)nc2)ccc1Cl [Example 535, (S)-2-(4-(4-((5-(3-((1-(1H-tetrazol-1-yl)propan-2-yl)oxy)-4-chlorophenyl)pyrimidin-2-yl)amino)-3-(trifluoromethyl)-1H-pyrazol-1-yl)piperidin-1-yl)ethan-1-ol] | < 10 nM |
| C[C@@H](Cn1cnnn1)Oc1cc(-c2cnc(Nc3cn(C4CCN(CC#N)CC4)nc3C(F)(F)F)nc2)ccc1Cl [Example 536, (S)-2-(4-(4-((5-(3-((1-(1H-tetrazol-1-yl)propan-2-yl)oxy)-4-chlorophenyl)pyrimidin-2-yl)amino)-3-(trifluoromethyl)-1H-pyrazol-1-yl)piperidin-1-yl)acetonitrile] | 10 to 100 nM |
| C[C@@H](Cn1cnnn1)Oc1cc(-c2cnc(Nc3cc(N4CCC(N5CCOCC5)CC4)ncc3OC(F)(F)F)nc2)ccc1Cl [Example 537, (S)-5-(3-((1-(1H-tetrazol-1-yl)propan-2-yl)oxy)-4-chlorophenyl)-N-(2-(4-morpholinopiperidin-1-yl)-5-(trifluoromethoxy)pyridin-4-yl)pyrimidin-2-amine] | < 10 nM |
| C[C@@H](Cn1cnnn1)Oc1cc(-c2cnc(Nc3cc4c(cc3Cl)CCN(C3CCOCC3)CC4)nc2)ccc1C#N [Example 538, (S)-2-((1-(1H-tetrazol-1-yl)propan-2-yl)oxy)-4-(2-((8-chloro-3-(tetrahydro-2H-pyran-4-yl)-2,3,4,5-tetrahydro-1H-benzo[d]azepin-7-yl)amino)pyrimidin-5-yl)benzonitrile] | < 10 nM |
| C[C@@H](Cn1cnnn1)Oc1cc(-c2cnc(Nc3cc4c(cc3Cl)CCN(C3COC3)CC4)nc2)ccc1C#N [Example 539, (S)-2-((1-(1H-tetrazol-1-yl)propan-2-yl)oxy)-4-(2-((8-chloro-3-(oxetan-3-yl)-2,3,4,5-tetrahydro-1H-benzo[d]azepin-7-yl)amino)pyrimidin-5-yl)benzonitrile] | < 10 nM |
| COc1ccc(C(=O)O)cc1Nc1ncc(-c2ccc(Cl)c(O[C@@H](C)Cn3cnnn3)c2)cn1 [Example 540, (S)-3-((5-(3-((1-(1H-tetrazol-1-yl)propan-2-yl)oxy)-4-chlorophenyl)pyrimidin-2-yl)amino)-4-methoxybenzoic acid] | ≥ 100 nM |
| C[C@@H](Cn1cnnn1)Oc1cc(-c2cnc(Nc3cc(N4CCN(C5CCOCC5)CC4)ncc3OC(F)(F)F)nc2)ccc1Cl [Example 541, (S)-5-(3-((1-(1H-tetrazol-1-yl)propan-2-yl)oxy)-4-chlorophenyl)-N-(2-(4-(tetrahydro-2H-pyran-4-yl)piperazin-1-yl)-5-(trifluoromethoxy)pyridin-4-yl)pyrimidin-2-amine] | < 10 nM |
| C[C@@H](Cn1cnnn1)Oc1cc(-c2cnc(Nc3cc(N4CCN(C5CCOCC5)CC4)ncc3OC(F)(F)F)nc2)ccc1C#N [Example 542, (S)-2-((1-(1H-tetrazol-1-yl)propan-2-yl)oxy)-4-(2-((2-(4-(tetrahydro-2H-pyran-4-yl)piperazin-1-yl)-5-(trifluoromethoxy)pyridin-4-yl)amino)pyrimidin-5-yl)benzonitrile] | < 10 nM |
| C[C@@H](Cn1cnnn1)Oc1cc(-c2cnc(Nc3cc(N4CCC(N5CCOCC5)CC4)ncc3OC(F)(F)F)nc2)ccc1C#N [Example 543, (S)-2-((1-(1H-tetrazol-1-yl)propan-2-yl)oxy)-4-(2-((2-(4-morpholinopiperidin-1-yl)-5-(trifluoromethoxy)pyridin-4-yl)amino)pyrimidin-5-yl)benzonitrile] | < 10 nM |
| COc1ccc(C(=O)N2CCCN(C)CC2)cc1Nc1ncc(-c2ccc(Cl)c(O[C@@H](C)Cn3cnnn3)c2)cn1 [Example 544, (S)-(3-((5-(3-((1-(1H-tetrazol-1-yl)propan-2-yl)oxy)-4-chlorophenyl)pyrimidin-2-yl)amino)-4-methoxyphenyl) (4-methyl-1,4-diazepan-1-yl)methanone] | < 10 nM |
| C[C@@H](Cn1cnnn1)Oc1cc(-c2cnc(Nc3cn(C4CCN(C5CCOCC5)CC4)nc3C3CC3)nc2)ccc1Cl [Example 545, (S)-5-(3-((1-(1H-tetrazol-1-yl)propan-2-yl)oxy)-4-chlorophenyl)-N-(3-cyclopropyl-1-(1-(tetrahydro-2H-pyran-4-yl)piperidin-4-yl)-1H-pyrazol-4-yl)pyrimidin-2-amine] | < 10 nM |
| C[C@@H](Cn1cnnn1)Oc1cc(-c2cnc(Nc3cn(C4CCN(C5CCOCC5)CC4)nc3C3CC3)nc2)ccc1C#N [Example 546, (S)-2-((1-(1H-tetrazol-1-yl)propan-2-yl)oxy)-4-(2-((3-cyclopropyl-1-(1-(tetrahydro-2H-pyran-4-yl)piperidin-4-yl)-1H-pyrazol-4-yl)amino)pyrimidin-5-yl)benzonitrile] | < 10 nM |
| C[C@@H](Cn1cnnn1)Oc1cc(-c2cnc(Nc3cn(C4CCN(CCC(C)(C)C)CC4)nc3C(F)(F)F)nc2)ccc1Cl [Example 547, (S)-5-(3-((1-(1H-tetrazol-1-yl)propan-2-yl)oxy)-4-chlorophenyl)-N-(1-(1-(3,3-dimethylbutyl)piperidin-4-yl)-3-(trifluoromethyl)-1H-pyrazol-4-yl)pyrimidin-2-amine] | < 10 nM |
| C[C@@H](Cn1cnnn1)Oc1cc(-c2cnc(Nc3cn(C4CCN(Cc5ccccc5)CC4)nc3C(F)(F)F)nc2)ccc1Cl [Example 548, (S)-5-(3-((1-(1H-tetrazol-1-yl)propan-2-yl)oxy)-4-chlorophenyl)-N-(1-(1-benzylpiperidin-4-yl)-3-(trifluoromethyl)-1H-pyrazol-4-yl)pyrimidin-2-amine] | < 10 nM |
